Reference: ChEMBL document CHEMBL1201862, “PubChem BioAssay data set” (2004)
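Five compound concentrations were applied to cells in 96-well plates for 48 hours; endpoints were derived by simple linear interpolation of the resulting dose-response curve. GI50: concentration for 50% inhibition of growth.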 Activity calls are given as the source filed them. No stated cut-off is given here; in the data, active = GI50 up to about 1.1 µM and inactive = higher.

Key:
Test in all cases: DTP human tumour cell line panel, 48 h
LOX IMVI = system: LOX IMVI
MDA-N = system: MDA-N
ACHN = system: ACHN
MOLT-4 = system: MOLT-4
NCI-H460 = system: NCI-H460
UACC-257 = system: UACC-257
CCRF-CEM = system: CCRF-CEM
K562 = system: K562
UO-31 = system: UO-31
SF-539 = system: SF-539
U-251 = system: U-251
SK-MEL-5 = system: SK-MEL-5
Hs-578T = system: Hs-578T
HOP-62 = system: HOP-62
COLO 205 = system: COLO 205
OVCAR-5 = system: OVCAR-5
NCI/ADR-RES = system: NCI/ADR-RES
SK-OV-3 = system: SK-OV-3
SNB-19 = system: SNB-19
HOP-92 = system: HOP-92

CN(C)CCCN1C(=S)N(CCCN(C)C)c2c3cc(O)ccc3nc3c([N+](=O)[O-])ccc1c23
GI50 (LOX IMVI): 1.26 µM (inactive)
GI50 (MDA-N): 3.42 µM (inactive)
GI50 (ACHN): 0.703 µM (active)
GI50 (MOLT-4): 0.0953 µM (active)
GI50 (NCI-H460): 0.34 µM (active)
GI50 (UACC-257): 5.45 µM (inactive)
GI50 (CCRF-CEM): 1.18 µM (inactive)
GI50 (K562): 2.14 µM (inactive)
GI50 (UO-31): 2.87 µM (inactive)
GI50 (SF-539): 1.29 µM (inactive)
GI50 (U-251): 2.46 µM (inactive)
GI50 (SK-MEL-5): 3.18 µM (inactive)
GI50 (Hs-578T): 5.61 µM (inactive)
GI50 (HOP-62): 2.61 µM (inactive)
GI50 (COLO 205): 1.12 µM (inactive)
GI50 (OVCAR-5): 11.8 µM (inactive)
GI50 (NCI/ADR-RES): 6.07 µM (inactive)
GI50 (SK-OV-3): 4.11 µM (inactive)
GI50 (SNB-19): 2.06 µM (inactive)
GI50 (HOP-92): 2.38 µM (inactive)

CCCCCCCCOC(=O)c1cc([N+](=O)[O-])c(Sc2[nH]cnc3ncnc2-3)c([N+](=O)[O-])c1
GI50 (LOX IMVI): 0.296 µM (active)
GI50 (MDA-N): 1.35 µM (inactive)
GI50 (ACHN): 2.92 µM (inactive)
GI50 (MOLT-4): 0.857 µM (active)
GI50 (NCI-H460): 3.4 µM (inactive)
GI50 (UACC-257): 5.62 µM (inactive)
GI50 (CCRF-CEM): 0.288 µM (active)
GI50 (K562): 0.366 µM (active)
GI50 (UO-31): 3.85 µM (inactive)
GI50 (SF-539): 2 µM (inactive)
GI50 (U-251): 3.44 µM (inactive)
GI50 (SK-MEL-5): 3.57 µM (inactive)
GI50 (Hs-578T): 5.33 µM (inactive)
GI50 (HOP-62): 3.03 µM (inactive)
GI50 (COLO 205): 1.6 µM (inactive)
GI50 (OVCAR-5): 3.15 µM (inactive)
GI50 (NCI/ADR-RES): 3 µM (inactive)
GI50 (SK-OV-3): 0.695 µM (active)
GI50 (SNB-19): 18.1 µM (inactive)
GI50 (HOP-92): 0.748 µM (active)

O=C1NCN(c2ccccc2)C12CCN(CCCN1CCN(CCOC(c3ccccc3)c3ccccc3)CC1)CC2
GI50 (LOX IMVI): 3.01 µM (inactive)
GI50 (MDA-N): 0.8 µM (active)
GI50 (ACHN): 2.5 µM (inactive)
GI50 (MOLT-4): 2.13 µM (inactive)
GI50 (NCI-H460): 3.84 µM (inactive)
GI50 (UACC-257): 1.47 µM (inactive)
GI50 (CCRF-CEM): 0.859 µM (active)
GI50 (K562): 0.447 µM (active)
GI50 (UO-31): 1.5 µM (inactive)
GI50 (SF-539): 1.25 µM (inactive)
GI50 (U-251): 4.07 µM (inactive)
GI50 (SK-MEL-5): 1.28 µM (inactive)
GI50 (Hs-578T): 3.48 µM (inactive)
GI50 (HOP-62): 3.25 µM (inactive)
GI50 (COLO 205): 1.18 µM (inactive)
GI50 (OVCAR-5): 5.08 µM (inactive)
GI50 (NCI/ADR-RES): 4.54 µM (inactive)
GI50 (SK-OV-3): 3.75 µM (inactive)
GI50 (SNB-19): 3.94 µM (inactive)
GI50 (HOP-92): 1.93 µM (inactive)

COCC1OCCN1C (stereo not given)
GI50 (LOX IMVI): > 100 µM (inactive)
GI50 (MDA-N): > 100 µM (inactive)
GI50 (ACHN): > 100 µM (inactive)
GI50 (MOLT-4): > 100 µM (inactive)
GI50 (NCI-H460): > 100 µM (inactive)
GI50 (UACC-257): > 100 µM (inactive)
GI50 (CCRF-CEM): > 100 µM (inactive)
GI50 (K562): > 100 µM (inactive)
GI50 (UO-31): > 100 µM (inactive)
GI50 (SF-539): > 100 µM (inactive)
GI50 (U-251): > 100 µM (inactive)
GI50 (SK-MEL-5): > 100 µM (inactive)
GI50 (Hs-578T): > 100 µM (inactive)
GI50 (HOP-62): > 100 µM (inactive)
GI50 (COLO 205): > 100 µM (inactive)
GI50 (OVCAR-5): > 100 µM (inactive)
GI50 (NCI/ADR-RES): > 100 µM (inactive)
GI50 (SK-OV-3): > 100 µM (inactive)
GI50 (SNB-19): > 100 µM (inactive)
GI50 (HOP-92): > 100 µM (inactive)

CN(C)c1ccc(/C=C(\NC(=O)c2ccccc2)c2nc3ccccc3c(=O)o2)cc1
GI50 (LOX IMVI): > 100 µM (inactive)
GI50 (MDA-N): 83.4 µM (inactive)
GI50 (ACHN): > 100 µM (inactive)
GI50 (MOLT-4): > 100 µM (inactive)
GI50 (NCI-H460): > 100 µM (inactive)
GI50 (UACC-257): > 100 µM (inactive)
GI50 (CCRF-CEM): > 100 µM (inactive)
GI50 (K562): > 100 µM (inactive)
GI50 (UO-31): > 100 µM (inactive)
GI50 (SF-539): > 100 µM (inactive)
GI50 (U-251): 82 µM (inactive)
GI50 (SK-MEL-5): 91.4 µM (inactive)
GI50 (Hs-578T): > 100 µM (inactive)
GI50 (HOP-62): 71.1 µM (inactive)
GI50 (COLO 205): > 100 µM (inactive)
GI50 (OVCAR-5): > 100 µM (inactive)
GI50 (NCI/ADR-RES): > 100 µM (inactive)
GI50 (SK-OV-3): > 100 µM (inactive)
GI50 (SNB-19): > 100 µM (inactive)
GI50 (HOP-92): > 100 µM (inactive)

CCCCCC(=O)Nc1[nH]cnc1C(N)=O
GI50 (LOX IMVI): > 100 µM (inactive)
GI50 (MDA-N): > 100 µM (inactive)
GI50 (ACHN): > 100 µM (inactive)
GI50 (MOLT-4): > 100 µM (inactive)
GI50 (NCI-H460): > 100 µM (inactive)
GI50 (UACC-257): > 100 µM (inactive)
GI50 (CCRF-CEM): > 100 µM (inactive)
GI50 (K562): > 100 µM (inactive)
GI50 (UO-31): > 100 µM (inactive)
GI50 (SF-539): > 100 µM (inactive)
GI50 (U-251): > 100 µM (inactive)
GI50 (SK-MEL-5): > 100 µM (inactive)
GI50 (Hs-578T): > 100 µM (inactive)
GI50 (HOP-62): > 100 µM (inactive)
GI50 (COLO 205): > 100 µM (inactive)
GI50 (OVCAR-5): > 100 µM (inactive)
GI50 (NCI/ADR-RES): > 100 µM (inactive)
GI50 (SK-OV-3): > 100 µM (inactive)
GI50 (SNB-19): > 100 µM (inactive)
GI50 (HOP-92): 71.3 µM (inactive)

Cc1c(-c2ccccn2)ccc2ccccc12
GI50 (LOX IMVI): 93.3 µM (inactive)
GI50 (MDA-N): 61 µM (inactive)
GI50 (ACHN): 52.7 µM (inactive)
GI50 (MOLT-4): 90.2 µM (inactive)
GI50 (NCI-H460): 42.4 µM (inactive)
GI50 (UACC-257): > 100 µM (inactive)
GI50 (CCRF-CEM): 28.2 µM (inactive)
GI50 (K562): 71 µM (inactive)
GI50 (UO-31): 32.7 µM (inactive)
GI50 (SF-539): > 100 µM (inactive)
GI50 (U-251): 93.5 µM (inactive)
GI50 (SK-MEL-5): 35.7 µM (inactive)
GI50 (Hs-578T): > 100 µM (inactive)
GI50 (HOP-62): > 100 µM (inactive)
GI50 (COLO 205): 41.4 µM (inactive)
GI50 (OVCAR-5): > 100 µM (inactive)
GI50 (NCI/ADR-RES): 45.9 µM (inactive)
GI50 (SK-OV-3): > 100 µM (inactive)
GI50 (SNB-19): > 100 µM (inactive)
GI50 (HOP-92): 23 µM (inactive)
